Patent US12049450B2, “Pyridyloxy-carboxylate derivative and preparation method therefor, herbicidal composition, and use” (Qingdao Kingagroot Chemical Compound Co., Ltd., priority 2018, dated 2024)

Assays:
Assay in all cases: Post-emergence test experiment (greenhouse pot, spray at 2-3 leaf stage)
Assay type in all cases: in vivo
Details in all cases: 1000 g/ha; post-emergence spray at 2-3 leaf stage; assessed after 3 weeks; fresh weight inhibition rate
Abutilon theophrasti = tested on: Abutilon theophrasti
Description: (§1) The activity level standard of harmful plants destruction (i. e. growth inhibition rate) is as follows: • Level 5: the growth inhibition rate is greater than 85%; • Level 4: the growth inhibition rate is equal to or greater than 60% and less than 85%; • Level 3: the growth inhibition rate is equal to or greater than 40% and less than 60%; • Level 2: the growth inhibition rate is equal to or greater than 20% and less than 40%; • Level 1: the growth inhibition rate is equal to or greater than 5% and less than 20%; • Level 0: the growth inhibition rate is less than 5%;
(§2) The above described growth inhibition rate is fresh weight inhibition rate.
(§3) Post-emergence test experiment: Monocotyledonous and dicotyledonous weed seeds and main crop seeds (i. e. wheat, corn, rice, soybean, cotton, oilseed, millet and sorghum.) were put into a plastic pot loaded with soil. Then covered with 0.5-2 cm soil, the seeds were allowed to grow in good greenhouse environment. The test plants were treated at 2-3 leaf stage 2 weeks after sowing. The test compounds of the invention were dissolved with acetone respectively, then added with tween-80, and using 1.5 liters per hectare of an emulsible concentrate of methyl oleate as a synergist, and diluted by certain amount of water to certain concentration. The solution was sprayed to the plants with a sprayer. Then the plants were cultured for 3 weeks in the greenhouse, and the experiment result of weed controlling effect after 3 weeks was listed in tables 3-4.

Echinochloa crusgalli = tested on: Echinochloa crusgalli
Description: as §1, §2, §3

Monochoria vaginalis = tested on: Monochoria vaginalis
Description: as §1, §2, §3

Digitaria sanguinalis = tested on: Digitaria sanguinalis
Description: as §1, §2, §3

Galium spurium = tested on: Galium spurium
Description: as §1, §2, §3

Row | SMILES | Activity level (growth inhibition rate) Abutilon theophrasti (Abutilon theophrasti) | Activity level (growth inhibition rate) Echinochloa crusgalli (Echinochloa crusgalli) | Activity level (growth inhibition rate) Monochoria Vaginalis (Monochoria vaginalis) | Activity level (growth inhibition rate) Digitaria sanguinalis (Digitaria sanguinalis) | Activity level (growth inhibition rate) Galium spurium (Galium spurium)
1 | CCOC(=O)Nc1cccc(CSC(=O)C(C)Oc2nc(F)c(Cl)c(N)c2Cl)c1 (racemic) [Compound 109] | 5 (Level 5: the growth inhibition rate is greater than 85%) | 5 (Level 5: the growth inhibition rate is greater than 85%) | 5 (Level 5: the growth inhibition rate is greater than 85%) | 5 (Level 5: the growth inhibition rate is greater than 85%) | 5 (Level 5: the growth inhibition rate is greater than 85%)
2 | COCOc1cccc(C)c1COC(=O)C(C)Oc1nc(F)c(Cl)c(N)c1Cl (racemic) [Compound 110] | 5 (Level 5: the growth inhibition rate is greater than 85%) | 5 (Level 5: the growth inhibition rate is greater than 85%) | 5 (Level 5: the growth inhibition rate is greater than 85%) | 5 (Level 5: the growth inhibition rate is greater than 85%) | 5 (Level 5: the growth inhibition rate is greater than 85%)
3 | CC(Oc1nc(F)c(Cl)c(N)c1Cl)C(=O)OCc1cc(Br)cc(C=O)c1 (racemic) [Compound 111] | 5 (Level 5: the growth inhibition rate is greater than 85%) | 5 (Level 5: the growth inhibition rate is greater than 85%) | 5 (Level 5: the growth inhibition rate is greater than 85%) | 5 (Level 5: the growth inhibition rate is greater than 85%) | 5 (Level 5: the growth inhibition rate is greater than 85%)
4 | CC(Oc1nc(F)c(Cl)c(N)c1Cl)C(=O)OCc1cccc(Oc2ccccc2)c1 (racemic) [Compound 114] | 5 (Level 5: the growth inhibition rate is greater than 85%) | 5 (Level 5: the growth inhibition rate is greater than 85%) | 5 (Level 5: the growth inhibition rate is greater than 85%) | 5 (Level 5: the growth inhibition rate is greater than 85%) | 5 (Level 5: the growth inhibition rate is greater than 85%)
5 | CC(Oc1nc(F)c(Cl)c(N)c1Cl)C(=O)OCc1cccc(-c2cccnc2)c1 (racemic) [Compound 115] | 5 (Level 5: the growth inhibition rate is greater than 85%) | 5 (Level 5: the growth inhibition rate is greater than 85%) | 5 (Level 5: the growth inhibition rate is greater than 85%) | 5 (Level 5: the growth inhibition rate is greater than 85%) | 5 (Level 5: the growth inhibition rate is greater than 85%)
6 | CC(Oc1nc(F)c(Cl)c(N)c1Cl)C(=O)OCc1cccnc1 (racemic) [Compound 116] | 5 (Level 5: the growth inhibition rate is greater than 85%) | 5 (Level 5: the growth inhibition rate is greater than 85%) | 5 (Level 5: the growth inhibition rate is greater than 85%) | 5 (Level 5: the growth inhibition rate is greater than 85%) | 5 (Level 5: the growth inhibition rate is greater than 85%)
7 | CCn1nccc1C(Oc1nc(F)c(Cl)c(N)c1Cl)C(=O)OCc1ccccc1 (stereo not drawn) [Compound 57] | 5 (Level 5: the growth inhibition rate is greater than 85%) |  | 5 (Level 5: the growth inhibition rate is greater than 85%) |  | 5 (Level 5: the growth inhibition rate is greater than 85%)
8 | Cc1nn(C)cc1C(Oc1nc(F)c(Cl)c(N)c1Cl)C(=O)SCc1ccccc1 (stereo not drawn) [Compound 58] | 5 (Level 5: the growth inhibition rate is greater than 85%) |  | 5 (Level 5: the growth inhibition rate is greater than 85%) |  | 5 (Level 5: the growth inhibition rate is greater than 85%)
9 | Nc1c(Cl)c(F)nc(OC(C(=O)OCc2ccccc2)c2ccn(C(F)F)n2)c1Cl (stereo not drawn) [Compound 59] | 5 (Level 5: the growth inhibition rate is greater than 85%) |  | 5 (Level 5: the growth inhibition rate is greater than 85%) |  | 5 (Level 5: the growth inhibition rate is greater than 85%)
10 | Nc1c(Cl)c(F)nc(OC(C(=O)OCc2ccccc2)c2ccccc2)c1Cl (stereo not drawn) [Compound 60] | 5 (Level 5: the growth inhibition rate is greater than 85%) |  | 5 (Level 5: the growth inhibition rate is greater than 85%) |  | 5 (Level 5: the growth inhibition rate is greater than 85%)
11 | Nc1c(Cl)c(F)nc(OC(C(=O)SCc2ccccc2)c2ccc(C(F)(F)F)cc2)c1Cl (stereo not drawn) [Compound 61] | 5 (Level 5: the growth inhibition rate is greater than 85%) |  | 5 (Level 5: the growth inhibition rate is greater than 85%) |  | 5 (Level 5: the growth inhibition rate is greater than 85%)
12 | Nc1c(Cl)c(F)nc(OC(C(=O)OCc2ccccc2)c2cccc(Cl)c2)c1Cl (stereo not drawn) [Compound 62] | 5 (Level 5: the growth inhibition rate is greater than 85%) |  | 5 (Level 5: the growth inhibition rate is greater than 85%) |  | 5 (Level 5: the growth inhibition rate is greater than 85%)
13 | COc1ccc(C(Oc2nc(F)c(Cl)c(N)c2Cl)C(=O)OCc2ccccc2)c(C)c1 (stereo not drawn) [Compound 63] | 5 (Level 5: the growth inhibition rate is greater than 85%) |  | 5 (Level 5: the growth inhibition rate is greater than 85%) |  | 5 (Level 5: the growth inhibition rate is greater than 85%)
14 | Nc1c(Cl)c(F)nc(OC(C(=O)OCc2ccccc2)c2cccnc2)c1Cl (stereo not drawn) [Compound 64] | 5 (Level 5: the growth inhibition rate is greater than 85%) |  | 5 (Level 5: the growth inhibition rate is greater than 85%) |  | 5 (Level 5: the growth inhibition rate is greater than 85%)
15 | Nc1c(Cl)c(F)nc(OC(C(=O)SCc2ccccc2)c2cncnc2)c1Cl (stereo not drawn) [Compound 65] | 5 (Level 5: the growth inhibition rate is greater than 85%) |  | 5 (Level 5: the growth inhibition rate is greater than 85%) |  | 5 (Level 5: the growth inhibition rate is greater than 85%)
16 | Nc1c(Cl)c(F)nc(OC(C(=O)OCc2ccccc2)c2ccc3ccccc3c2)c1Cl (stereo not drawn) [Compound 66] | 5 (Level 5: the growth inhibition rate is greater than 85%) |  | 5 (Level 5: the growth inhibition rate is greater than 85%) |  | 5 (Level 5: the growth inhibition rate is greater than 85%)
